From ChEMBL document CHEMBL4152218, “Novel hydrazide-hydrazone and amide substituted coumarin derivatives: Synthesis, cytotoxicity screening, microarray, radiolabeling and in vivo pharmacokinetic studies” (Eur J Med Chem, 2018)

Columns and labels:
[1] = system: hTERT-BJ; test: Cytotoxicity against hTERT-BJ cells at 50 uM after 48 hrs by resazurin dye-based fluorescence assay relative to control; type: cell-based; details: human
[2] = system: TERT-RPE1; test: Cytotoxicity against hTERT-RPE1 cells after 48 hrs by resazurin dye-based fluorescence assay; type: cell-based; details: Homo sapiens, RPE-1, 48 h
[3] = Selectivity index, ratio of IC50 for hTERT-BJ cells to IC50 for human PANC1 cells; type: toxicity; details: hTERT-BJ cells versus PANC1 cells, read-out: Ratio IC50
[4] = system: hTERT-BJ; test: Cytotoxicity against hTERT-BJ cells at 25 uM after 48 hrs by resazurin dye-based fluorescence assay relative to control; type: cell-based; details: human
[5] = system: HepG2; test: Antiproliferative activity against human HepG2 cells after 48 hrs by resazurin dye-based fluorescence assay; type: functional, cell-based; details: HepG2, 48 h
[6] = system: PANC-1; test: Antiproliferative activity against human PANC1 cells after 48 hrs by resazurin dye-based fluorescence assay; type: functional, cell-based; details: PANC-1, 48 h
[7] = Selectivity index, ratio of IC50 for hTERT-BJ cells to IC50 for human CCRF-CEM cells; type: toxicity; details: hTERT-BJ cells versus CCRF-CEM cells, read-out: Ratio IC50
[8] = system: hTERT-BJ; test: Cytotoxicity against hTERT-BJ cells at 6.25 uM after 48 hrs by resazurin dye-based fluorescence assay relative to control; type: cell-based; details: human
[9] = Selectivity index, ratio of IC50 for hTERT-RPE1 cells to IC50 for human HepG2 cells; type: toxicity; details: hTERT-RPE1 cells versus HepG2 cells, read-out: Ratio IC50
[10] = Selectivity index, ratio of IC50 for hTERT-BJ cells to IC50 for human HepG2 cells; type: toxicity; details: hTERT-BJ cells versus HepG2 cells, read-out: Ratio IC50
[11] = system: hTERT-BJ; test: Cytotoxicity against hTERT-BJ cells at 12.50 uM after 48 hrs by resazurin dye-based fluorescence assay relative to control; type: cell-based; details: human, 12.5 µM
[12] = system: hTERT-BJ; test: Cytotoxicity against hTERT-BJ cells after 48 hrs by resazurin dye-based fluorescence assay; type: cell-based; details: Homo sapiens
[13] = system: PANC-1; test: Induction of apoptosis in human PANC1 cells assessed as increase in caspase-3/7 activity after 24 hrs by Caspase-Glo 3/7 luminescence assay; type: functional, cell-based
[14] = Selectivity index, ratio of IC50 for hTERT-RPE1 cells to IC50 for human CCRF-CEM cells; type: toxicity; details: hTERT-RPE1 cells versus CCRF-CEM cells, read-out: Ratio IC50
[15] = system: TERT-RPE1; test: Cytotoxicity against hTERT-RPE1 cells at 6.25 uM after 48 hrs by resazurin dye-based fluorescence assay relative to control; type: cell-based; details: human, tert-rpe1, 48 h
[16] = system: CCRF-CEM; test: Antiproliferative activity against human CCRF-CEM cells after 48 hrs by resazurin dye-based fluorescence assay; type: functional, cell-based
[17] = system: TERT-RPE1; test: Cytotoxicity against hTERT-RPE1 cells at 12.50 uM after 48 hrs by resazurin dye-based fluorescence assay relative to control; type: cell-based; details: human, tert-rpe1, 48 h, 12.5 µM
[18] = system: TERT-RPE1; test: Cytotoxicity against hTERT-RPE1 cells at 25 uM after 48 hrs by resazurin dye-based fluorescence assay relative to control; type: cell-based; details: human, tert-rpe1, 48 h
[19] = system: TERT-RPE1; test: Cytotoxicity against hTERT-RPE1 cells at 50 uM after 48 hrs by resazurin dye-based fluorescence assay relative to control; type: cell-based; details: human, tert-rpe1, 48 h
[20] = Selectivity index, ratio of IC50 for hTERT-RPE1 cells to IC50 for human PANC1 cells; type: toxicity; details: hTERT-RPE1 cells versus PANC1 cells, read-out: Ratio IC50
[21] = system: HepG2; test: Induction of apoptosis in human HepG2 cells assessed as increase in caspase-3/7 activity after 24 hrs by Caspase-Glo 3/7 luminescence assay; type: functional, cell-based

## O=C(N/N=C/c1cccnc1)c1cc2ccccc2oc1=O
[1]
  Activity: 2.6%
[2]
  IC50: > 50 µM
[3]
  selectivity ratio: > 3.27
[4]
  Activity: 5.22%
[5]
  IC50: 15.9 µM
[6]
  IC50: 15.3 µM
[7]
  selectivity ratio: > 5.05
[8]
  Activity: 0.21%
[9]
  selectivity ratio: > 3.14
[10]
  selectivity ratio: > 3.14
[11]
  Activity: 0.97%
[12]
  IC50: > 50 µM
[13]
  Activity: Dose-dependent effect
[14]
  selectivity ratio: > 5.05
[15]
  Activity: 7.46%
[16]
  IC50: 9.9 µM
[17]
  Activity: 8.28%
[18]
  Activity: 9.89%
[19]
  Activity: 14.75%
[20]
  selectivity ratio: > 3.27
[21]
  Activity: Dose-dependent effect

## CCOc1ccc2nc(Cl)c(/C=N/NC(=O)c3cc4cc([N+](=O)[O-])ccc4oc3=O)cc2c1
[1]
  Activity: 3.33%
[2]
  IC50: > 50 µM
[3]
  selectivity ratio: > 4.75
[4]
  Activity: 2.13%
[5]
  IC50: 18.1 µM
[6]
  IC50: 10.5 µM
[7]
  selectivity ratio: > 3.19
[8]
  Activity: 1.58%
[9]
  selectivity ratio: > 2.77
[10]
  selectivity ratio: > 2.77
[11]
  Activity: 1.38%
[12]
  IC50: > 50 µM
[13]
  Activity: Dose-dependent effect
[14]
  selectivity ratio: > 3.19
[15]
  Activity: 1.74%
[16]
  IC50: 15.7 µM
[17]
  Activity: 3.92%
[18]
  Activity: 5.6%
[19]
  Activity: 10.48%
[20]
  selectivity ratio: > 4.75
[21]
  Activity: Dose-dependent effect

## Cc1noc(NS(=O)(=O)c2ccc(NC(=O)c3cc4cc([N+](=O)[O-])ccc4oc3=O)cc2)c1C
[1]
  Activity: 10.27%
[2]
  IC50: > 50 µM
[3]
  selectivity ratio: > 4.19
[4]
  Activity: 7.18%
[5]
  IC50: 15 µM
[6]
  IC50: 11.9 µM
[7]
  selectivity ratio: > 3.49
[8]
  Activity: 2.53%
[9]
  selectivity ratio: > 3.34
[10]
  selectivity ratio: > 3.34
[11]
  Activity: 4.43%
[12]
  IC50: > 50 µM
[14]
  selectivity ratio: > 3.49
[15]
  Activity: 1.27%
[16]
  IC50: 14.3 µM
[17]
  Activity: 2.5%
[18]
  Activity: 4.79%
[19]
  Activity: 4.06%
[20]
  selectivity ratio: > 4.19

## CCOc1ccc(NC(=O)c2cc3cc(Br)ccc3oc2=O)cc1
[1]
  Activity: 3.3%
[2]
  IC50: > 50 µM
[3]
  selectivity ratio: > 2.97
[4]
  Activity: 1.86%
[5]
  IC50: 37 µM
[6]
  IC50: 16.8 µM
[7]
  selectivity ratio: > 2.3
[8]
  Activity: 2.3%
[9]
  selectivity ratio: > 1.35
[10]
  selectivity ratio: > 1.35
[11]
  Activity: 1.19%
[12]
  IC50: > 50 µM
[14]
  selectivity ratio: > 2.3
[15]
  Activity: 3.04%
[16]
  IC50: 21.8 µM
[17]
  Activity: 9.63%
[18]
  Activity: 13.28%
[19]
  Activity: 16.45%
[20]
  selectivity ratio: > 2.97

## CCOc1ccc2nc(Cl)c(/C=N/NC(=O)c3cc4cc(Br)ccc4oc3=O)cc2c1
[1]
  Activity: 2.67%
[2]
  IC50: > 50 µM
[3]
  selectivity ratio: > 2.94
[4]
  Activity: 2.63%
[5]
  IC50: 29 µM
[6]
  IC50: 17 µM
[7]
  selectivity ratio: > 3.87
[8]
  Activity: 0.53%
[9]
  selectivity ratio: > 1.72
[10]
  selectivity ratio: > 1.72
[11]
  Activity: 1.77%
[12]
  IC50: > 50 µM
[14]
  selectivity ratio: > 3.87
[15]
  Activity: 5.41%
[16]
  IC50: 12.9 µM
[17]
  Activity: 12.4%
[18]
  Activity: 13.67%
[19]
  Activity: 20.15%
[20]
  selectivity ratio: > 2.94

## O=C(N/N=C/c1cccnc1)c1cc2cc(Br)ccc2oc1=O
[1]
  Activity: 2.33%
[2]
  IC50: > 50 µM
[3]
  selectivity ratio: > 5.99
[4]
  Activity: 1.7%
[5]
  IC50: 19 µM
[6]
  IC50: 8.35 µM
[7]
  selectivity ratio: > 13.5
[8]
  Activity: 0.86%
[9]
  selectivity ratio: > 2.63
[10]
  selectivity ratio: > 2.63
[11]
  Activity: 0.78%
[12]
  IC50: > 50 µM
[14]
  selectivity ratio: > 13.5
[15]
  Activity: 6.64%
[16]
  IC50: 3.71 µM
[17]
  Activity: 12.55%
[18]
  Activity: 25.4%
[19]
  Activity: 34.12%
[20]
  selectivity ratio: > 5.99

## O=C(N/N=C/c1ccncc1)c1cc2cc(Br)ccc2oc1=O
[1]
  Activity: 2.52%
[2]
  IC50: > 50 µM
[3]
  selectivity ratio: > 1.94
[4]
  Activity: 1.37%
[5]
  IC50: 4.89 µM
[6]
  IC50: 25.7 µM
[7]
  selectivity ratio: > 7.88
[8]
  Activity: 0.6%
[9]
  selectivity ratio: > 10.2
[10]
  selectivity ratio: > 10.2
[11]
  Activity: 0.2%
[12]
  IC50: > 50 µM
[13]
  Activity: Dose-dependent effect
[14]
  selectivity ratio: > 7.88
[15]
  Activity: 9.63%
[16]
  IC50: 6.34 µM
[17]
  Activity: 17.16%
[18]
  Activity: 34.5%
[19]
  Activity: 39.96%
[20]
  selectivity ratio: > 1.94
[21]
  Activity: Dose-dependent effect

## CCOc1ccc(NC(=O)c2cc3cc([N+](=O)[O-])ccc3oc2=O)cc1
[1]
  Activity: 6.11%
[2]
  IC50: > 50 µM
[3]
  selectivity ratio: > 4.13
[4]
  Activity: 5.22%
[5]
  IC50: 28.3 µM
[6]
  IC50: 12.1 µM
[7]
  selectivity ratio: > 3.78
[8]
  Activity: 3.1%
[9]
  selectivity ratio: > 1.77
[10]
  selectivity ratio: > 1.77
[11]
  Activity: 1.66%
[12]
  IC50: > 50 µM
[14]
  selectivity ratio: > 3.78
[15]
  Activity: 5.12%
[16]
  IC50: 13.2 µM
[17]
  Activity: 6.01%
[18]
  Activity: 8.22%
[19]
  Activity: 9.35%
[20]
  selectivity ratio: > 4.13
